Here are results for 29 compounds from patent US10766869B2, “Triazoles for the treatment of demyelinating dieases” (Vertex Pharmaceuticals Incorporated, priority 2015, dated 2020).

SMILES strings stand for the structures. Like-named read-outs stand apart in the source and are kept apart here.

The assay concerns primary rat mixed cortical cells. The assay can be described thus: In vitro myelination assay (MBP positive myelin strands, fold myelin pixels above background). In kind it is cell-based. As to conditions: Rattus norvegicus, relative to baseline of no added compound; for fold induction at 1 µM: 1.0 μM compound; for fold induction at 10 µM: 10.0 μM compound. The procedure, abridged: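 P1 rat mixed cortical cultures (neurons, OPCs, oligodendrocytes, astrocytes, microglia) grown 14 days at 37 °C with compound, half-medium refreshed with compound on days 6 and 10. Fixed cells stained for MBP; MBP-positive myelin strand pixels per well quantified by automated imaging, reported as fold over no-compound baseline at 1.0 and 10.0 μM.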

The mark [1] stands for this setting: read-out: Fold myelin pixels above background, 1.0 μM.
The mark [2] stands for this setting: read-out: Fold myelin pixels above background, 10.0 μM.
Setting [3] is: read-out: Fold myelin pixels above background.

Take `Cc1cc(Nc2ncn(-c3ccc(F)c(F)c3)n2)cc(OC2CCN(C3COC3)CC2)c1` [Compound 384, 1-(3,4-difluorophenyl)-N-[3-methyl-5-[[1-(oxetan-3-yl)-4-piperidyl]oxy]phenyl]-1,2,4-triazol-3-amine]: the fold induction at 1 µM under setting [1] lay in the range of 100 to 1000. The fold induction at 10 µM under setting [2] lay in the range of 100 to 1000.
Regarding `COCC1CCN(c2cc(C)cc(Nc3ncn(-c4ccncc4)n3)c2)CC1` [Compound 385, N-[3-[4-(methoxymethyl)-1-piperidyl]-5-methyl-phenyl]-1-(4-pyridyl)-1,2,4-triazol-3-amine], the fold induction at 1 µM under setting [1] was 100 to 1000. Further, the fold induction at 10 µM under setting [2] fell in the range of 100 to 1000.
For the compound `Cc1cc(Nc2ncn(-c3ccc(F)c(F)c3)n2)cc(N2CCN(C3COC3)CC2)c1` [Compound 386, 1-(3,4-difluorophenyl)-N-[3-methyl-5-[4-(oxetan-3-yl)piperazin-1-yl]phenyl]-1,2,4-triazol-3-amine], under setting [3], the fold induction at 1 µM is 100 to 1000 and the fold induction at 10 µM fell in the range of 1000 to 10000.
For `Cc1cc(Nc2ncn(-c3cncc(F)c3)n2)cc(N2CCN(C)CC2)c1` [Compound 387, 1-(5-fluoro-3-pyridyl)-N-[3-methyl-5-(4-methylpiperazin-1-yl)phenyl]-1,2,4-triazol-3-amine], in that order: 10 to 100 and 100 to 1000.
With `COc1cc(F)cc(-n2cnc(Nc3cc(C4CC4)cc(N4CCN(C5COC5)CC4)c3)n2)c1` [Compound 388, N-[3-cyclopropyl-5-[4-(oxetan-3-yl)piperazin-1-yl]phenyl]-1-(3-fluoro-5-methoxy-phenyl)-1,2,4-triazol-3-amine], under setting [3], the fold induction at 1 µM was in the range of 10 to 100 and the fold induction at 10 µM was no more than 1.
In the same order, the values of `Fc1cc(F)cc(-n2cnc(Nc3cc(C4CC4)cc(N4CCN(C5COC5)CC4)c3)n2)c1` [Compound 389, N-(3-cyclopropyl-5-(4-(oxetan-3-yl)piperazin-1-yl)phenyl)-1-(3,5-difluorophenyl)-1H-1,2,4-triazol-3-amine] are 1000 to 10000 and no more than 1.
`CCN(C)Cc1cc(F)cc(-n2cnc(Nc3cc(C)cc(N4CCN(C)CC4)c3)n2)c1` [Compound 390, 1-[3-[[ethyl(methyl)amino]methyl]-5-fluoro-phenyl]-N-[3-methyl-5-(4-methylpiperazin-1-yl)phenyl]-1,2,4-triazol-3-amine]: under setting [3], the fold induction at 1 µM lay in the range of 10 to 100 and the fold induction at 10 µM fell in the range of 10 to 100.
With `Cc1cc(Nc2ncn(-c3ccccc3)n2)cc(O[C@@H]2CCN(C3COC3)C2)c1` [Compound 391, N-[3-methyl-5-[(3R)-1-(oxetan-3-yl)pyrrolidin-3-yl]oxy-phenyl]-1-phenyl-1,2,4-triazol-3-amine], under setting [3], the fold induction at 1 µM lay within 1000 to 10000 and the fold induction at 10 µM was 100 to 1000.
Consider `FC(F)c1cc(Nc2ncn(-c3ccccc3)n2)cc(N2CCOCC2)c1` [Compound 392, N-[3-(difluoromethyl)-5-morpholino-phenyl]-1-phenyl-1,2,4-triazol-3-amine], for which, under setting [3], the fold induction at 1 µM was in the range of 100 to 1000 and the fold induction at 10 µM fell in the range of 10 to 100.
Consider `Fc1ccc(-n2cnc(Nc3cc(N4CCOCC4)nc(N4CCOCC4)c3)n2)cc1F` [Compound 393, N-[1-(3,4-difluorophenyl)-1,2,4-triazol-3-yl]-2,6-dimorpholino-pyridin-4-amine], for which, under setting [3], the fold induction at 1 µM is 100 to 1000 and the fold induction at 10 µM was no more than 1.
Turning to `Fc1ccc(-n2cnc(Nc3cc(F)cc(N4CCOCC4)c3)n2)cc1` [Compound 394, N-(3-fluoro-5-morpholino-phenyl)-1-(4-fluorophenyl)-1,2,4-triazol-3-amine], under setting [3], the fold induction at 1 µM lay within 1 to 10 and the fold induction at 10 µM was no more than 1.
As for `COc1cc(F)cc(-n2cnc(Nc3cc(C)cc(N4CCN(C)CC4)c3)n2)c1` [Compound 395, 1-(3-fluoro-5-methoxy-phenyl)-N-[3-methyl-5-(4-methylpiperazin-1-yl)phenyl]-1,2,4-triazol-3-amine], under setting [3], the fold induction at 1 µM was 10 to 100 and the fold induction at 10 µM was no more than 1.
In the same order, the values of `CCCc1cc(Nc2ncn(-c3cc(F)cc(F)c3)n2)cc(N2CCN(C3COC3)CC2)c1` [Compound 396, 1-(3,5-difluorophenyl)-N-[3-[4-(oxetan-3-yl)piperazin-1-yl]-5-propyl-phenyl]-1,2,4-triazol-3-amine] are 10 to 100 and 10 to 100.
In the same order, the values of `Cc1cc(Nc2ncn(-c3cccc(Cl)c3)n2)cc(N2CCN(C3COC3)CC2)c1` [Compound 397, 1-(3-chlorophenyl)-N-[3-methyl-5-[4-(oxetan-3-yl)piperazin-1-yl]phenyl]-1,2,4-triazol-3-amine] are 1000 to 10000 and 100 to 1000.
`Cc1cc(Nc2ncn(-c3ccccc3)n2)cc(N2CCN(CC(F)(F)F)CC2)c1` [Compound 398, N-[3-methyl-5-[4-(2,2,2-trifluoroethyl)piperazin-1-yl]phenyl]-1-phenyl-1,2,4-triazol-3-amine]: under setting [3], the fold induction at 1 µM lay within 1000 to 10000 and the fold induction at 10 µM is 100 to 1000.
In the same order, the values of `Cc1cc(Nc2ncn(-c3ccnnc3)n2)cc(N2CCN(C)CC2)c1` [Compound 399, N-[3-methyl-5-(4-methylpiperazin-1-yl)phenyl]-1-pyridazin-4-yl-1,2,4-triazol-3-amine] are 10 to 100 and 1 to 10.
For `Fc1cc(Cl)cc(-n2cnc(Nc3cc(C4CC4)cc(N4CCN(C5COC5)CC4)c3)n2)c1` [Compound 400, 1-(3-chloro-5-fluoro-phenyl)-N-[3-cyclopropyl-5-[4-(oxetan-3-yl)piperazin-1-yl]phenyl]-1,2,4-triazol-3-amine], in that order: 1000 to 10000 and no more than 1.
Consider `CCc1cc(Nc2ncn(-c3cncc(C)n3)n2)cc(N2CCN(C3COC3)CC2)c1` [Compound 401, N-[3-ethyl-5-[4-(oxetan-3-yl)piperazin-1-yl]phenyl]-1-(6-methylpyrazin-2-yl)-1,2,4-triazol-3-amine], for which, under setting [3], the fold induction at 1 µM was in the range of 100 to 1000 and the fold induction at 10 µM lay in the range of 100 to 1000.
With `CC(=O)N1CCC(Nc2cc(C)cc(Nc3ncn(-c4ccccc4)n3)c2)CC1` [Compound 402, 1-[4-[3-methyl-5-[(1-phenyl-1,2,4-triazol-3-yl)amino]anilino]-1-piperidyl]ethanone], under setting [3], the fold induction at 1 µM is 100 to 1000 and the fold induction at 10 µM lay within 10 to 100.
For `Cc1cc(Nc2ncn(-c3ccnc(F)c3)n2)cc(N2CCOCC2)c1` [Compound 403, 1-(2-fluoro-4-pyridyl)-N-(3-methyl-5-morpholino-phenyl)-1,2,4-triazol-3-amine], in that order: 1000 to 10000 and 10 to 100.
As for `Cc1cc(Nc2ncn(-c3ccccn3)n2)cc(C2COC2)c1` [Compound 404, N-[3-methyl-5-(oxetan-3-yl)phenyl]-1-(2-pyridyl)-1,2,4-triazol-3-amine], under setting [3], the fold induction at 1 µM was in the range of 100 to 1000 and the fold induction at 10 µM is 100 to 1000.
For `Fc1cc(F)cc(-n2cnc(Nc3cc(C4CC4)nc(N4CCOCC4)c3)n2)c1` [Compound 405, 2-cyclopropyl-N-[1-(3,5-difluorophenyl)-1,2,4-triazol-3-yl]-6-morpholino-pyridin-4-amine], under setting [3], the fold induction at 1 µM was 100 to 1000 and the fold induction at 10 µM lay in the range of 1000 to 10000.
With `Fc1cc(F)cc(-n2cnc(Nc3cc(C4CCOCC4)nc(C4CC4)c3)n2)c1` [Compound 407, 2-cyclopropyl-N-[1-(3,5-difluorophenyl)-1,2,4-triazol-3-yl]-6-tetrahydropyran-4-yl-pyridin-4-amine], under setting [3], the fold induction at 1 µM lay within 1000 to 10000 and the fold induction at 10 µM is no more than 1.
For `Cc1cc(Nc2ncn(-c3cc(F)cc(F)c3)n2)cc(C2CCCN(C3COC3)C2)c1` (stereo not shown) [Compound 408, 1-(3,5-difluorophenyl)-N-[3-methyl-5-[1-(oxetan-3-yl)-3-piperidyl]phenyl]-1,2,4-triazol-3-amine], in that order: 100 to 1000 and 10 to 100.
In the case of `Cc1cc(Nc2ncn(-c3ccc(F)cc3)n2)cc(C2COC2)c1` [Compound 409, 1-(4-fluorophenyl)-N-[3-methyl-5-(oxetan-3-yl)phenyl]-1,2,4-triazol-3-amine], under setting [3], the fold induction at 1 µM fell in the range of 1000 to 10000 and the fold induction at 10 µM is 100 to 1000.
In the same order, the values of `Cc1cc(Nc2ncn(-c3ccccc3)n2)cc(OC2CCN(C3COC3)CC2)c1` [Compound 410, N-[3-methyl-5-[[1-(oxetan-3-yl)-4-piperidyl]oxy]phenyl]-1-phenyl-1,2,4-triazol-3-amine] are 10 to 100 and no more than 1.
In the same order, the values of `Cc1cc(Nc2ncn(-c3cccc(F)c3)n2)cc(C2CCCN(C3COC3)C2)c1` (stereo not shown) [Compound 411, 1-(3-fluorophenyl)-N-[3-methyl-5-[1-(oxetan-3-yl)-3-piperidyl]phenyl]-1,2,4-triazol-3-amine] are 100 to 1000 and no more than 1.
On to `CN1CCN(c2cc(Nc3ncn(-c4ccc(F)c(F)c4)n3)cc(C(F)(F)F)c2)CC1` [Compound 412, 1-(3,4-difluorophenyl)-N-[3-(4-methylpiperazin-1-yl)-5-(trifluoromethyl)phenyl]-1,2,4-triazol-3-amine], for which, under setting [3], the fold induction at 1 µM lay in the range of 1000 to 10000 and the fold induction at 10 µM is no more than 1.
For `Cc1cc(Nc2ncn(-c3cc(F)c(F)cc3F)n2)cc(N2CCN(C3COC3)CC2)c1` [Compound 413, N-[3-methyl-5-[4-(oxetan-3-yl)piperazin-1-yl]phenyl]-1-(2,4,5-trifluorophenyl)-1,2,4-triazol-3-amine], in that order: no more than 1 and 100 to 1000.
